# According to patent US7074801B1, “Nitrogen-containing condensed cyclic compound having a pyrazolyl group as a substituent group and pharmaceutical composition thereof” (Eisai Co., Ltd., priority 2001, dated 2006):
# Counter-ions that a name gives are not always drawn.
# Test system: STAT6
# Experiment: Inhibitory test on STAT6 activation: IL-4-induced alkali phosphatase STAT6 reporter in 293 cells stably expressing the STAT6 gene and STAT6 reporter gene
# Type: cell-based
# Conditions: HEK293; Table 1; 1 ng/ml human recombinant IL-4, 16 hours, 293 cells with STAT6 reporter; read-out: Inhibitory activity IC50 (concentration at which the alkali phosphatase activity induced by IL-4 was inhibited by 50%)
# Outline: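 HEK293 clone stably carrying STAT6 and a STAT6-element-driven alkaline phosphatase reporter, 5000 cells/well. Compound (DMSO ≤0.1%) plus 1 ng/ml human IL-4 for 16 hours. Supernatant heat-treated 65° C. 10 minutes, then alkaline phosphatase measured fluorometrically in carbonate buffer.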
row,Compound,IC50 [µM]
1,"CSc1nnc(-c2cnc3ccc(-c4c[nH]nc4-c4ccc(F)cc4)cn23)o1 [Example 555, 6-[3-(4-Fluorophenyl)-1H-pyrazol-4-yl]-3-(5-methylsulfanyl[1,3,4]oxadiazol-2-yl)imidazo[1,2-a]pyridine]",< 0.01
2,"c1ccc(-c2cnc3ccc(-c4c[nH]nc4-c4ccc(N5CCOCC5)cc4)cn23)nc1 [Example 539, 6-[3-(4-Morpholine-4-ylphenyl)-1H-pyrazol-4-yl]-3-(pyridin-2-yl)imidazo[1,2-a]pyridine]",< 0.01
3,"CN(C(=O)N1CCOCC1)c1ccc(-c2n[nH]cc2-c2ccc3ncc(-c4ccccn4)n3c2)cc1 [Example 534, Morpholine-4-carboxylic acid methyl(4-[4-(3-pyridin-2-ylimidazo[1,2-a]pyridin-6-yl)-1H-pyrazol-3-yl]phenyl} amide]",< 0.01
4,"Fc1cc(Cl)ccc1-c1nc(-c2ccc(-c3cnc4ccc(-c5cn[nH]c5)cn34)cc2)no1 [Example 697, 5-(4-Chloro-2-fluorophenyl)-3-{4-[6-(1H-4-pyrazolyl)-imidazo[1,2-a]pyridin-3-yl]-1,2,4-oxadiazole hydrochloride]",0.01 to 0.1
5,"CN1CCN(c2ccnc3ccc(-c4c[nH]nc4-c4ccc(F)cc4)cc23)CC1 [Example 203, 6-[3-(4-Fluorophenyl)-1H-4-pyrazolyl]-4-(4-methylpiperazin-1-yl)quinoline dihydrochloride]",0.01 to 0.1
6,"CC(C)NC(=O)Nc1ccc(-c2cnc3ccc(-c4cn[nH]c4)cn23)cc1F [Example 699, N-12-Fluoro-4-[6-(1H-4-pyrazolyl)imidazo[1,2-a]pyridin-3-yl] phenyl}-N′-isopropylurea hydrochloride]",0.01 to 0.1
7,"COc1nnc(-c2cnc3ccc(-c4c[nH]nc4-c4ccc(F)cc4F)cn23)s1 [Example 562, 6-[3-(2,4-Fluorophenyl)-1H-pyrazol-4-yl]-3-(5-methoxy[1,3,4]thiadiazol-2-yl)imidazo[1,2-a]pyridine]",< 0.01
8,"O=C1CCc2cc(-c3cnc4ccc(-c5c[nH]nc5-c5ccc(F)cc5)cn34)ccc21 [Example 623, 5-{6-[3-(4-Fluorophenyl)-1H-4-pyrazolyl]imidazo[1,2-a]pyridin-3-yl}-1-indanone]",< 0.01
9,"O=C(Nc1nc(C2CC2)cs1)c1ccc(-c2cnc3ccc(-c4cn[nH]c4)cn23)cc1F [Example 652, N1-(4-Cyclopropyl-1,3-thiazol-2-yl)-2-fluoro-4-[6-(1H-4-pyrazolyl)imidazo[1,2-a]pyridin-3-yl]benzamide dihydrochloride]",< 0.01
10,"Cc1ccc(C(=O)C(C)(C)NC(=O)c2ccc(-c3cnc4ccc(-c5cn[nH]c5)cn34)cc2F)c(F)c1 [Example 674, hydrochloride]",< 0.01
11,"CN(C)Cc1nc(-c2cnc3ccc(-c4c[nH]nc4-c4ccccc4F)cn23)no1 [Example 598, (3-{6-[3-(2-Fluorophenyl)-1H-4-pyrazolyl]-imidazo[1,2-a]-pyridin-3-yl}-[1,2,4]oxadiazol-5-ylmethyl)dimethylamine tri-trifluoroacetate]",< 0.01
12,"Cc1csc(NC(=O)c2ccc(-c3cnc4ccc(-c5cn[nH]c5)cn34)cc2)n1 [Example 629, N1-(4-Methyl-1,3-thiazol-2-yl)-4-[6-(1H-4-pyrazolyl)-imidazo[1,2-a]pyridin-3-yl]benzamide dihydrochloride]",< 0.01
13,"O=C(Nc1nc2ccc(OC(F)(F)F)cc2s1)c1ccc(-c2cnc3ccc(-c4cn[nH]c4)cn23)cc1F [Example 670, N1-[6-(Trifluoromethoxy)-1,3-benzothiazol-2-yl]-2-fluoro-4-[6-(1H-4-pyrazolyl)imidazo[1,2-a]pyridin-3-yl]benzamide dihydrochloride]",0.01 to 0.1

# Same assay, conditions: HEK293; Table 2; 1 ng/ml human recombinant IL-4, 16 hours, 293 cells with STAT6 reporter; read-out: Inhibitory activity IC50 (concentration at which the alkali phosphatase activity induced by IL-4 was inhibited by 50%)
row,Compound,IC50 [µM]
1,"CS(=O)(=O)c1ccc(-c2ncnc3ccc(-c4c[nH]nc4CNc4ccc(F)cc4F)cc23)s1 [Example 906, 2,4-Difluorophenyl{4-[4-(5-methylsulfonylthiophen-2-yl)quinazolin-6-yl]-1H-pyrazol-3-ylmethyl} amine]",0.1 to 1
2,"c1nc(N2CCN(C3CCCCC3)CC2)c2cc(-c3cn[nH]c3)ccc2n1 [Example 957, 4-(4-Cyclohexylpiperazin-1-yl)-6-(1H-pyrazol-4-yl)quinazoline tri-trifluoroacetate]",0.01 to 0.1
3,"CS(=O)(=O)c1ccc(C(=O)C2CCN(c3ncnc4ccc(-c5cn[nH]c5)cc34)CC2)s1 [Example 880, (5-Methylsulfonylthiophen-2-yl)-{1-[6-(1H-pyrazol-4-yl)quinazolin-4-yl]piperidin-4-yl}methanone trihydrochloride]",0.01 to 0.1
4,"CC(NC(=O)c1ccc(-c2cnc3ccc(-c4cn[nH]c4)cn23)cc1F)c1ccccn1 (stereo not drawn) [Example 707, N1-[1-(2-Pyridyl)ethyl]-2-fluoro-4-[6-(1H-4-pyrazolyl)-imidazo[1,2-a]pyridin-3-yl]benzamide dihydrochloride]",0.01 to 0.1
5,"CS(=O)(=O)c1ccc(N2CCN(c3ncnc4ccc(-c5cn[nH]c5)cc34)CC2)s1 [Example 923, 4-[4-(5-Methylsulfonylthiophen-2-yl)piperazin-1-yl]-6-(1H-pyrazol-4-yl)quinazoline trihydrochloride]",< 0.01
6,"Cc1cc(-c2ccnc3ccc(-c4c[nH]nc4C(F)(F)F)cc23)on1 [Example 1070, 4-(3-Methylisoxazol-5-yl)-6-(3-trifluoromethyl-1H-pyrazol-4-yl) quinoline]",0.01 to 0.1
7,"CS(=O)(=O)c1ccccc1NC(=O)c1ccc(-c2cnc3ccc(-c4cn[nH]c4)cn23)cc1F [Example 701, N1-[2-(Methylsulfonyl)phenyl]-2-fluoro-4-[6-(1H-4-pyrazolyl)imidazo[1,2-a]pyridin-3-yl]benzamide hydrochloride]",0.01 to 0.1
8,"Fc1ccc(-c2n[nH]cc2-c2ccc3ncnc(-c4nnc(C5CC5)o4)c3c2)c(F)c1 [Example 907, 4-(5-Cyclopropyl[1,3,4]oxadiazol-2-yl)-6-[3-(2,4-difluorophenyl)-1H-pyrazol-4-yl] quinazoline]",0.01 to 0.1
9,"O=C(Nc1cccc(N2CCN(c3ncnc4ccc(-c5cn[nH]c5)cc34)CC2)c1)C1CC1 [Example 976, Cyclopropanecarboxylic acid (3-{4-[6-(1H-pyrazol-4-yl)quinazolin-4-yl]piperazin-1-yl}phenyl)amide tri-trifluoroacetate]",< 0.01
10,"Cc1n[nH]cc1-c1ccc2ncnc(N3CCC(Oc4cccc(C#N)c4)CC3)c2c1 [Example 876, 3-{1-[6-(3-Methyl-1H-pyrazol-4-yl)quinazolin-4-yl]piperidin-4-yloxy} benzonitrile trihydrochloride]",0.01 to 0.1
11,"O=S(=O)(c1ccc(OC2CCN(c3ccnc4ccc(-c5c[nH]nc5C(F)(F)F)cc34)CC2)cc1)C(F)(F)F [Example 1034, 4-[4-(4-Trifluoromethylsulfonylphenoxy)piperidin-1-yl]-6-(3-trifluoromethyl-1H-pyrazol-4-yl)quinoline trihydrochloride]",0.01 to 0.1
